Laboratory results published in EP0432974A1, “Cyclic renin inhibitors” (MERCK & CO. INC., priority 1989, dated 1991).
pIC50: −log10 of the molar value. Square brackets hold non-standard residues; d marks the D form. Peptide text beside a SMILES is read from it. * marks the point of attachment. Sta = CC(C)C[C@H](N)[C@@H](O)CC(=O)O; Isovaleryl = CC(C)CC(=O)*

How the values were obtained:
[1] = test system: sodium-deficient Rhesus monkeys; assay: intravenous evaluation of renin inhibitors in conscious sodium-deficient Rhesus monkeys (blood pressure lowering); assay type: in vivo; conditions: i.v. bolus
Description: The following methods were used for in vivo evaluation of the renin inhibitors of Formula I : Intravenous evaluation of renin inhibitors in concious sodium-deficient Rhesus monkeys : Rhesus monkeys, male and female, weighing 2.6-4.5 Kg, were surgically prepared with chronic arterial and venous catheters and vascular access ports for direct monitoring of mean arterial pressure (MAP) and heart rate (HR). The animals were maintained on a low sodium diet (1.2 mmol Nalday) plus friut for a week, and administered LASIX (furosemide) at 2.5 mg/Kg, intramuscularly the evening prior to the experiment The animals had been trained to sit quietly in the chairs with water ad libium for the duration of the experiment. The inhibitors were administered by bolus injection using 0.5% acetic acid-5% dextrose in water as the vehicle (0.4 ml/Kg), and MAP and HR were measured. Blood samples were withdrawn at different time intervals beginning at the nadir of hypotensive response. PRAwas determined as described above. […] A projected ED50 dose for each inhibitor was calculated using the following furmula : ED50 (Test Inhibitor, umoles/Kg) = ED50 (SCRIP) X [ICso (Test Inhibitor)/ICso (SCRIP)], where the IC50 values were determined against human plasma renin. […] Percent inhibition of monkey PRA, changes in MAP and HR were calculated and plotted against time. […]

[2] = test system: human plasma renin; assay: human plasma renin IC50 determination at pH 7.4; assay type: biochemical
Experimental: The following method was used for in vitro evaluation of the renin inhibitors of Formula I : The human plasma renin IC50 values for inhibitors of Formula I were determined at pH 7.4 following the procedure described in J. Boger, L.S. Payne, D.S. Perlow, N.S. Lohr, M. Poe, E.H. Blaine, E.H. Ulm, T.W. Schorn, B.I. Lamont, T.Y. Lin, M. Kawai, D.H. Rich and D.F. Veber, J. Med. Chem., 28,1779 (1985).

pIC50 [2]: 8.43
SMILES: CC(C)CC(=O)N[C@@H](Cc1c[nH]cn1)C(=O)N1CCC[C@H]1C(=O)N[C@@H](Cc1ccccc1)C(=O)N[C@@H](Cc1c[nH]cn1)C(=O)N[C@@H](CC(C)C)[C@@H](O)CC(=O)N[C@@H](CC(C)C)C(=O)N[C@@H](Cc1ccccc1)C(N)=O [SCRIP, Iva-His-Pro-Phe-His-Sta-Leu-Phe-NH2] (Isovaleryl-HPFH[Sta]LF-NH2)
ED50 (i.v. dose required to lower blood pressure by 50% of the maximal response) [1]: 0.039 µmol/kg
